How the values were obtained:
Type in all cases: in vivo
Diabrotica balteata = Diabrotica balteata (corn root worm), maize sprouts sprayed, L2 larvae; details: 96 h, application rate 200 ppm, 4 days after infestation, L2 larvae, read-out: effect in at least one of the two categories (mortality or growth inhibition)
Experimental: Diabrotica Balteata (Corn Root Worm)
Maize sprouts placed onto an agar layer in 24-well microtiter plates were treated with aqueous test solutions prepared from 10,000 ppm DMSO stock solutions by spraying. After drying, the plates were infested with L2 larvae (6 to 10 per well). The samples were assessed for mortality and growth inhibition in comparison to untreated samples 4 days after infestation.

Spodoptera littoralis = Spodoptera littoralis (Egyptian cotton leaf worm), cotton leaf discs, L1 larvae; details: foliar, 72 h, application rate 200 ppm, 3 days after infestation, L1 larvae, read-out: control (mortality, anti-feedant effect or growth inhibition)
Experimental: Spodoptera littoralis (Egyptian Cotton Leaf Worm)
Cotton leaf discs were placed onto agar in 24-well microtiter plates and sprayed with aqueous test solutions prepared from 10,000 ppm DMSO stock solutions. After drying the leaf discs were infested with five L1 larvae. The samples were assessed for mortality, anti-feeding effect, and growth inhibition in comparison to untreated samples 3 days after infestation. Control of Spodoptera littoralis by a test sample is given when at least one of the categories mortality, anti-feedant effect, and growth inhibition is higher than the untreated sample.

Plutella xylostella = Plutella xylostella (diamond back moth), artificial diet, L2 larvae; details: 120 h, application rate 200 ppm, 5 days after infestation, L2 larvae, read-out: effect in at least one of the two categories (mortality or growth inhibition)
Experimental: Plutella xylostella (Diamond Back Moth)
24-well microtiter plates with artificial diet were treated with aqueous test solutions prepared from 10,000 ppm DMSO stock solutions by pipetting. After drying, the plates were infested with L2 larvae (10 to 15 per well). The samples were assessed for mortality and growth inhibition in comparison to untreated samples 5 days after infestation.

Tetranychus urticae = Tetranychus urticae (two-spotted spider mite), feeding/contact activity; details: foliar, 192 h, application rate 200 ppm, 8 days after infestation, bean leaf discs, read-out: mortality on mixed population (mobile stages)
Experimental: Tetranychus urticae (Two-Spotted Spider Mite): Feeding/Contact Activity
Bean leaf discs on agar in 24-well microtiter plates were sprayed with aqueous test solutions prepared from 10,000 ppm DMSO stock solutions. After drying the leaf discs were infested with a mite population of mixed ages. The samples were assessed for mortality on mixed population (mobile stages) 8 days after infestation.

Euschistus heros = Euschistus heros (neotropical brown stink bug), soybean leaves sprayed, N2 nymphs; details: 120 h, application rate 200 ppm, 5 days after infestation, N2 nymphs, read-out: effect in at least one of the two categories (mortality or growth inhibition)
Experimental: Euschistus heros (Neotropical Brown Stink Bug)
Soybean leaves on agar in 24-well microtiter plates were sprayed with aqueous test solutions prepared from 10,000 ppm DMSO stock solutions. After drying the leaves were infested with N2 nymphs. The samples were assessed for mortality and growth inhibition in comparison to untreated samples 5 days after infestation.

Myzus persicae = Myzus persicae (green peach aphid), feeding/contact activity; details: foliar, 144 h, application rate 200 ppm, 6 days after infestation, sunflower leaf discs, mixed ages, read-out: mortality
Experimental: Myzus persicae (Green Peach Aphid): Feeding/Contact Activity
(§1) Sunflower leaf discs were placed onto agar in a 24-well microtiter plate and sprayed with aqueous test solutions prepared from 10,000 ppm DMSO stock solutions. After drying, the leaf discs were infested with an aphid population of mixed ages. The samples were assessed for mortality 6 days after infestation.

Thrips tabaci = Thrips tabaci (onion thrips), feeding/contact activity; details: foliar, 144 h, application rate 200 ppm, 6 days after infestation, sunflower leaf discs, mixed ages, read-out: mortality
Experimental: Thrips tabaci (Onion thrips) Feeding/Contact Activity
as §1, with “on” for “onto”, “in” for “in a”, “plates” for “plate”, “drying” for “drying,”, “a thrips” for “an aphid”

Cc1nc(N2CCC(c3cc(Cl)cc(Cl)c3)(C(F)(F)F)C2)ccc1C(=O)N[C@H]1CON(S(=O)(=O)N(C)C)C1 (stereo partly drawn) [Compound A16, 6-[3-(3,5-dichlorophenyl)-3-(trifluoromethyl)pyrrolidin-1-yl]-N-[(4R)-2-(dimethylsulfamoyl)isoxazolidin-4-yl]-2-methyl-pyridine-3-carboxamide]
≥ 80%: percent effect (mortality or growth inhibition) at 200 ppm (Diabrotica balteata) | percent control (mortality, anti-feedant effect or growth inhibition) at 200 ppm (Spodoptera littoralis) | percent effect (mortality or growth inhibition) at 200 ppm (Plutella xylostella) | mortality at 200 ppm (Tetranychus urticae) | percent effect (mortality or growth inhibition) at 200 ppm (Euschistus heros) | mortality at 200 ppm (Myzus persicae) | mortality at 200 ppm (Thrips tabaci)

Cc1cc(C2=NCC(c3cc(Cl)c(F)c(Cl)c3)(C(F)(F)F)C2)ccc1C(=O)N[C@H]1CON(S(=O)(=O)N(C)C)C1 (stereo partly drawn) [Compound A10, 4-[3-(3,5-dichloro-4-fluoro-phenyl)-3-(trifluoromethyl)-2,4-dihydropyrrol-5-yl]-N-[(4R)-2-(dimethylsulfamoyl)isoxazolidin-4-yl]-2-methyl-benzamide]
≥ 80%: percent effect (mortality or growth inhibition) at 200 ppm (Diabrotica balteata) | percent control (mortality, anti-feedant effect or growth inhibition) at 200 ppm (Spodoptera littoralis) | percent effect (mortality or growth inhibition) at 200 ppm (Plutella xylostella) | mortality at 200 ppm (Tetranychus urticae) | percent effect (mortality or growth inhibition) at 200 ppm (Euschistus heros) | mortality at 200 ppm (Myzus persicae) | mortality at 200 ppm (Thrips tabaci)

Cc1nc(C2=CC(c3cc(Cl)cc(Cl)c3)(C(F)(F)F)OC2)ccc1C(=O)N[C@H]1CON(S(=O)(=O)N(C)C)C1 (stereo partly drawn) [Compound A17, 6-[5-(3,5-dichlorophenyl)-5-(trifluoromethyl)-2H-furan-3-yl]-N-[(4R)-2-(dimethylsulfamoyl)isoxazolidin-4-yl]-2-methyl-pyridine-3-carboxamide]
≥ 80%: percent effect (mortality or growth inhibition) at 200 ppm (Diabrotica balteata) | percent control (mortality, anti-feedant effect or growth inhibition) at 200 ppm (Spodoptera littoralis) | percent effect (mortality or growth inhibition) at 200 ppm (Plutella xylostella) | mortality at 200 ppm (Tetranychus urticae) | percent effect (mortality or growth inhibition) at 200 ppm (Euschistus heros) | mortality at 200 ppm (Thrips tabaci)

Cc1cc(C2=COC(c3cc(Cl)cc(Cl)c3)(C(F)(F)F)C2)ccc1C(=O)N[C@H]1CON(S(=O)(=O)N(C)C)C1 (stereo partly drawn) [Compound A12, 4-[2-(3,5-dichlorophenyl)-2-(trifluoromethyl)-3H-furan-4-yl]-N-[(4R)-2-(dimethylsulfamoyl)isoxazolidin-4-yl]-2-methyl-benzamide]
≥ 80%: percent effect (mortality or growth inhibition) at 200 ppm (Diabrotica balteata) | percent control (mortality, anti-feedant effect or growth inhibition) at 200 ppm (Spodoptera littoralis) | percent effect (mortality or growth inhibition) at 200 ppm (Plutella xylostella) | mortality at 200 ppm (Tetranychus urticae) | percent effect (mortality or growth inhibition) at 200 ppm (Euschistus heros) | mortality at 200 ppm (Myzus persicae) | mortality at 200 ppm (Thrips tabaci)

Cc1cc(N2CCC(c3cc(Cl)cc(Cl)c3)(C(F)(F)F)C2)ncc1C(=O)N[C@H]1CON(S(=O)(=O)N(C)C)C1 (stereo partly drawn) [Compound A15, 6-[3-(3,5-dichlorophenyl)-3-(trifluoromethyl)pyrrolidin-1-yl]-N-[(4R)-2-(dimethylsulfamoyl)isoxazolidin-4-yl]-4-methyl-pyridine-3-carboxamide]
≥ 80%: percent effect (mortality or growth inhibition) at 200 ppm (Diabrotica balteata) | percent control (mortality, anti-feedant effect or growth inhibition) at 200 ppm (Spodoptera littoralis) | percent effect (mortality or growth inhibition) at 200 ppm (Plutella xylostella) | mortality at 200 ppm (Tetranychus urticae) | percent effect (mortality or growth inhibition) at 200 ppm (Euschistus heros)

Cc1cc(C2=NS[C@@](c3cc(Cl)cc(Cl)c3)(C(F)(F)F)C2)ccc1C(=O)N[C@H]1CON(S(=O)(=O)N(C)C)C1 [Compound A13, 4-[(5S)-5-(3,5-dichlorophenyl)-5-(trifluoromethyl)-4H-isothiazol-3-yl]-N-[(4R)-2-(dimethylsulfamoyl)isoxazolidin-4-yl]-2-methyl-benzamide]
≥ 80%: percent effect (mortality or growth inhibition) at 200 ppm (Diabrotica balteata) | percent control (mortality, anti-feedant effect or growth inhibition) at 200 ppm (Spodoptera littoralis) | percent effect (mortality or growth inhibition) at 200 ppm (Plutella xylostella) | mortality at 200 ppm (Tetranychus urticae) | percent effect (mortality or growth inhibition) at 200 ppm (Euschistus heros) | mortality at 200 ppm (Myzus persicae) | mortality at 200 ppm (Thrips tabaci)

Reference: patent US11104671B2, “Insecticidal compounds” (SYNGENTA PARTICIPATIONS AG, priority 2017, dated 2021)
